Test results from US20230127839A1, “COMPOUNDS AND COMPOSITIONS FOR TREATING CONDITIONS ASSOCIATED WITH STING ACTIVITY” (IFM Due, Inc., priority 2019, published 2023).

Biological target: T1, hSTING (Homo sapiens, UniProt Q86WV6, G230A/H232R/R293Q/R71H)
T1 construct: host or cells: THP1-Dual KO-IFNAR2 cells
Experiment: STING reporter assay (luciferase) in THP1-Dual KO-IFNAR2 cells stimulated with 2'3'cGAMP
Type: cell-based
Details: 2'3'cGAMP 15 μM, 24 h, luciferase reporter activity
Procedure: STING pathway activation by the compounds described herein is measured using THP1-Dual™ cells (KO-IFNAR2).
THP1-Dual™ KO-IFNAR2 Cells (obtained from invivogen) are maintained in RPMI, 10% FCS, 5 ml P/S, 2 mM L-glut, 10 mM Hepes, and 1 mM sodium pyruvate.
Compounds are spotted in empty 384 well tissue culture plates (Greiner 781182) by Echo for a final concentration of 0.0017-100 μM. Cells are plated into the TC plates at 40 μL per well, 2×10E6 cells/mL. For activation with STING ligand, 2′3′cGAMP (MW 718.38, obtained from Invivogen), is prepared in Optimem media.
The following solutions are prepared for each 1×384 plate: • Solution A: 2 mL Optimem with one of the following stimuli: • 60 uL of 10 mM 2′3′cGAMP->150 μM stock • Solution B: 2 mL Optimem with 60 μL Lipofectamine 2000->Incubate 5 min at RT
2 mL of solution A and 2 ml Solution B is mixed and incubated for 20 min at room temperature (RT). 20 uL of transfection solution (A+B) is added on top of the plated cells, with a final 2′3′cGAMP concentration of 15 μM. The plates are then centrifuged immediately at 340 g for 1 minute, after which they are incubated at 37° C., 5% CO2, >98% humidity for 24 h. Luciferase reporter activity is then measured. EC50 values are calculated by using standard methods known in the art.
Luciferase reporter assay: 10 μL of supernatant from the assay is transferred to white 384-plate with flat bottom and squared wells. One pouch of QUANTI-Luc™ Plus us dissolved in 25 mL of water. 100 μL of QLC Stabilizer per 25 mL of QUANTI-Luc™ Plus solution is added. 50 μL of QUANTI-Luc™ Plus/QLC solution per well is then added. Luminescence is measured on a Platereader (e.g., Spectramax I3X (Molecular Devices GF3637001)).
Luciferase reporter activity is then measured. EC50 values are calculated by using standard methods known in the art.

T1 sequence (Q86WV6 whole entry R71H/G230A/H232R/R293Q): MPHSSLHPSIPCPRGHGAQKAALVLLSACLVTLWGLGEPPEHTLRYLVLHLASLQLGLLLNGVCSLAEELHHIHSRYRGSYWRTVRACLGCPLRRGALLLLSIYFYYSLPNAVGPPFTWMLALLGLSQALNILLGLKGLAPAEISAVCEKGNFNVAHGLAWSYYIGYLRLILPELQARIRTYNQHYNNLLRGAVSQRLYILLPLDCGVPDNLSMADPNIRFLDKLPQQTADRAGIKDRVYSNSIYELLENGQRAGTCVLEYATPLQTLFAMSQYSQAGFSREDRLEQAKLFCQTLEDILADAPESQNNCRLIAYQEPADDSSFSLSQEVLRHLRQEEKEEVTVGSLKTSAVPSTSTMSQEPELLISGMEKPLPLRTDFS

EC50 [µM]	SMILES
0.04 to 0.2	O=C(Nc1cnc(N2CCC3(CC2)CC3(F)F)c(Cl)c1)Nc1c[nH]c2ccc(Cl)cc12 [Compound 237, 1-(5-chloro-1H-indol-3-yl)-3-(5-chloro-6-(1,1-difluoro-6-azaspiro[2.5]octan-6-yl)pyridin-3-yl)urea]
0.04 to 0.2	C[C@@H]1CN(c2ncc(NC(=O)Nc3c[nH]c4ccc(Cl)cc34)cc2Cl)CCN1C(=O)OC(C)(C)C [Compound 284, tert-butyl(R)-4-(3-chloro-5-(3-(5-chloro-1H-indol-3-yl)ureido)pyridin-2-yl)-2-methylpiperazine-1-carboxylate]
1 to 5	O=C(Nc1cnc(N2CC3(C2)CC(F)(F)C3)c(Cl)c1)Nc1c[nH]c2c(Br)cc(Cl)cc12 [Compound 244, 1-(7-bromo-5-chloro-1H-indol-3-yl)-3-(5-chloro-6-(6,6-difluoro-2-azaspiro[3.3]heptan-2-yl)pyridin-3-yl)urea]
0.04 to 0.2	O=C(Nc1cnc(N2CCC(F)(F)C2)c(Cl)c1)Nc1c[nH]c2ccc(Cl)cc12 [Compound 243, 1-(5-chloro-1H-indol-3-yl)-3-(5-chloro-6-(3,3-difluoropyrrolidin-1-yl)pyridin-3-yl)urea]
0.04 to 0.2	O=C(Nc1cnc(N2CCC(F)(F)CC2)c(Cl)c1)Nc1c[nH]c2ccc(Cl)cc12 [Compound 196, 1-(5-chloro-1H-indol-3-yl)-3-(5-chloro-6-(4,4-difluoropiperidin-1-yl)pyridin-3-yl)urea]
0.04 to 0.2	O=C(Nc1cnc(N2CCN(CC(F)(F)F)CC2)c(Cl)c1)Nc1c[nH]c2ccc(F)cc12 [Compound 266, 1-(5-chloro-6-(4-(2,2,2-trifluoroethyl)piperazin-1-yl)pyridin-3-yl)-3-(5-fluoro-1H-indol-3-yl)urea]
0.2 to 1	CN(C(=O)Nc1c[nH]c2ccc(Cl)cc12)c1cnc(N2CCC(F)(F)CC2)c(Cl)c1 [Compound 258, 3-(5-chloro-1H-indol-3-yl)-1-(5-chloro-6-(4,4-difluoropiperidin-1-yl)pyridin-3-yl)-1-methylurea]
0.04 to 0.2	O=C(Nc1cnc(N2CC3(C2)CC(F)(F)C3)c(F)c1)Nc1c[nH]c2ccc(Cl)cc12 [Compound 137, 1-(5-chloro-1H-indol-3-yl)-3-(6-(6,6-difluoro-2-azaspiro[3.3]heptan-2-yl)-5-fluoropyridin-3-yl)urea]
0.04 to 0.2	O=C(Nc1cnc(N2CCC(F)(F)CC2)cn1)Nc1c[nH]c2ccc(Cl)cc12 [Compound 189, 1-(5-chloro-1H-indol-3-yl)-3-(5-(4,4-difluoropiperidin-1-yl)pyrazin-2-yl)urea]
0.04 to 0.2	O=C(Nc1cnc(N2CCC(F)(F)CC2)c(F)c1)Nc1c[nH]c2ccc(Cl)cc12 [Compound 292, 1-(5-chloro-1H-indol-3-yl)-3-(6-(4,4-difluoropiperidin-1-yl)-5-fluoropyridin-3-yl)urea]
0.04 to 0.2	O=C(Nc1cnc(N2CCN(CC(F)(F)F)CC2)c(Cl)c1)Nc1c[nH]c2ccc(Cl)cc12 [Compound 126, 1-(5-chloro-1H-indol-3-yl)-3-(5-chloro-6-(4-(2,2,2-trifluoroethyl)piperazin-1-yl)pyridin-3-yl)urea]
0.04 to 0.2	O=C(Nc1cnc(N2CCC3(CC2)CC3(F)F)c(Cl)c1)Nc1c[nH]c2cc(F)c(F)cc12 [Compound 236, 1-(5-chloro-6-(1,1-difluoro-6-azaspiro[2.5]octan-6-yl)pyridin-3-yl)-3-(5,6-difluoro-1H-indol-3-yl)urea]
0.04 to 0.2	O=C(Nc1cnc(C2CCC(F)(F)CC2)c(Cl)c1)Nc1c[nH]c2ccc(Cl)cc12 [Compound 157, 1-(5-chloro-1H-indol-3-yl)-3-(5-chloro-6-(4,4-difluorocyclohexyl)pyridin-3-yl)urea]
0.2 to 1	COCCO[C@H]1CCN(c2ncc(NC(=O)Nc3c[nH]c4cc(F)c(F)cc34)cc2Cl)C1 [Compound 150, (S)-1-(5-chloro-6-(3-(2-methoxyethoxy)pyrrolidin-1-yl)pyridin-3-yl)-3-(5,6-difluoro-1H-indol-3-yl)urea]
1 to 5	COCCN1CCN(c2ncc(NC(=O)Nc3c[nH]c4cc(F)c(F)cc34)cc2Cl)CC1 [Compound 134, 1-(5-chloro-6-(4-(2-methoxyethyl)piperazin-1-yl)pyridin-3-yl)-3-(5,6-difluoro-1H-indol-3-yl)urea]
0.04 to 0.2	O=C(Nc1cnc(N2CCC(F)(F)CC2)c(Cl)n1)Nc1c[nH]c2ccc(Cl)cc12 [Compound 174, 1-(5-chloro-1H-indol-3-yl)-3-(6-chloro-5-(4,4-difluoropiperidin-1-yl)pyrazin-2-yl)urea]
0.2 to 1	Cc1cc(NC(=O)Nc2c[nH]c3cc(F)c(F)cc23)cnc1N1CC2(C1)CC(F)(F)C2 [Compound 167, 1-(5,6-difluoro-1H-indol-3-yl)-3-(6-(6,6-difluoro-2-azaspiro[3.3]heptan-2-yl)-5-methylpyridin-3-yl)urea]
1 to 5	O=C(Nc1cnc(N2CCC(F)(F)CC2)nc1)Nc1c[nH]c2ccccc12 [Compound 178, 1-(2-(4,4-difluoropiperidin-1-yl)pyrimidin-5-yl)-3-(1H-indol-3-yl)urea]
0.04 to 0.2	O=C(Nc1cnc(C2CCN(CC(F)(F)F)CC2)c(Cl)c1)Nc1c[nH]c2ccc(F)cc12 [Compound 268, 1-(5-chloro-6-(1-(2,2,2-trifluoroethyl)piperidin-4-yl)pyridin-3-yl)-3-(5-fluoro-1H-indol-3-yl)urea]
0.2 to 1	O=C(Nc1cnc(C2CCC(F)(F)CC2)c(CO)c1)Nc1c[nH]c2ccc(Cl)cc12 [Compound 136, 1-(5-chloro-1H-indol-3-yl)-3-(6-(4,4-difluorocyclohexyl)-5-(hydroxymethyl)pyridin-3-yl)urea]
0.2 to 1	O=C(Nc1cnc(C2CCC(F)(F)CC2)c(Cl)c1)Nc1c[nH]c2cc(F)ccc12 [Compound 141, 1-(5-chloro-6-(4,4-difluorocyclohexyl)pyridin-3-yl)-3-(6-fluoro-1H-indol-3-yl)urea]
1 to 5	O=C(Nc1ccc(N2CCC(F)(F)CC2)nn1)Nc1c[nH]c2ccccc12 [Compound 204, 1-(6-(4,4-difluoropiperidin-1-yl)pyridazin-3-yl)-3-(1H-indol-3-yl)urea]
0.2 to 1	COCCO[C@@H]1CCN(c2ncc(NC(=O)Nc3c[nH]c4cc(F)c(F)cc34)cc2Cl)C1 [Compound 185, (R)-1-(5-chloro-6-(3-(2-methoxyethoxy)pyrrolidin-1-yl)pyridin-3-yl)-3-(5,6-difluoro-1H-indol-3-yl)urea]
0.04 to 0.2	Cc1cc(NC(=O)Nc2c[nH]c3cc(F)c(F)cc23)cnc1N1CCC(F)(F)CC1 [Compound 200, 1-(5,6-difluoro-1H-indol-3-yl)-3-(6-(4,4-difluoropiperidin-1-yl)-5-methylpyridin-3-yl)urea]
0.04 to 0.2	O=C(Nc1cnc(N2CCN(CCC(F)(F)F)CC2)c(Cl)c1)Nc1c[nH]c2ccc(Cl)cc12 [Compound 124, 1-(5-chloro-1H-indol-3-yl)-3-(5-chloro-6-(4-(3,3,3-trifluoropropyl)piperazin-1-yl)pyridin-3-yl)urea]
0.2 to 1	O=C(Nc1cnn(C2CC(F)(F)C2)c1)Nc1c[nH]c2ccc(Cl)cc12 [Compound 215, 1-(5-chloro-1H-indol-3-yl)-3-(1-(3,3-difluorocyclobutyl)-1H-pyrazol-4-yl)urea]
0.2 to 1	O=C(Nc1ccc(N2CCC(F)(F)CC2)nc1)Nc1c[nH]c2ccc(F)cc12 [Compound 273, 1-(6-(4,4-difluoropiperidin-1-yl)pyridin-3-yl)-3-(5-fluoro-1H-indol-3-yl)urea]
